Structures can show the parent of a compound that is named as a salt.
Legend:
EGFR Δ19del/T790M/C797S = EGFR Δ19del/T790M/C797S (Homo sapiens, UniProt P00533, T790M/C797S, form not given); test: Kinase assay (mobility shift) for EGFR Δ19del/T790M/C797S; assay type: biochemical; conditions: read-out: EGFR Δ 19del/T790M/C797S IC50
Procedure: (§1) Enzyme reaction protocol are as followed:
(§2) 1. Preparing 1* Kinase buffer as followed.
(§3) 2. Preparing Compound Concentration Gradient: Compounds were tested at a concentration of 300 nM, diluted to 100-fold final concentration in 100% DMSO solution in 96-well plates, and compounds were diluted 3 times with Precision, 10 concentrations. Each concentration of the compound was then further diluted to a 5-fold final concentration of the intermediate dilution solution using 1* Kinase buffer.
(§4) 3. 5 μL of each of the prepared intermediate dilution compounds was separately added to the compound wells of the 384-well plate, and each concentration was tested for duplicate wells; 5 μL of 5% DMSO was added to the negative control wells and the positive control wells, respectively.
(§5) 4. 2.5-fold final concentration of the kinase solution was prepared using 1*Kinase buffer.
(§6) 6. Centrifuge at 1000 rpm for 30 seconds, shake the reaction plate and incubate for 10 minutes at room temperature.
(§7) 8. 10 μL of a 2.5-fold final concentration of a mixed solution of ATP and a substrate was added to initiate the reaction.
(§8) 9. Centrifuge the 384-well plate at 1000 rpm for 30 seconds, mix by shaking, and incubate at room temperature for the corresponding time.
(§9) 10. Add 30 μL of the stop solution to stop the kinase reaction, centrifuge at 1000 rpm for 30 seconds, and mix by shaking.
(§10) 11. Read the conversion rate with Caliper EZ Reader.
(§11) Convert conversion values to inhibition values:
(§12) Percent inhibition=(max−conversion % sample)/(max−min)*100.
(§13) “max” stands for the mean value of the positive control well ratio; “min” stands for the mean value of the negative control well; conversion % sample: sample conversion reading.
(§14) Fit the data in log(inhibitor) vs. response Variable slope of GraphPad Prism 5 to obtain IC50 values.
(§15) Equation used is: Y=Bottom+(Top−Bottom)/(1+(IC50/X)*HillSlope)

Ba/F3-Δ19del/T790M/C797S = Ba/F3-Δ19del/T790M/C797S (Homo sapiens, UniProt P00533, T790M/C797S, cells depend on it, form not given); test: Ba/F3-Δ19del/T790M/C797S cells proliferation assay; assay type: cell-based; conditions: cell proliferation, 72 h, CellTiter Glo; class symbols; read-out: BaF3 Δ 19del/T790M/C797S IC50
Chain of Ba/F3-Δ19del/T790M/C797S (P00533 with tags, fused parts or gaps DEL746-750/T790M/C797S, form open): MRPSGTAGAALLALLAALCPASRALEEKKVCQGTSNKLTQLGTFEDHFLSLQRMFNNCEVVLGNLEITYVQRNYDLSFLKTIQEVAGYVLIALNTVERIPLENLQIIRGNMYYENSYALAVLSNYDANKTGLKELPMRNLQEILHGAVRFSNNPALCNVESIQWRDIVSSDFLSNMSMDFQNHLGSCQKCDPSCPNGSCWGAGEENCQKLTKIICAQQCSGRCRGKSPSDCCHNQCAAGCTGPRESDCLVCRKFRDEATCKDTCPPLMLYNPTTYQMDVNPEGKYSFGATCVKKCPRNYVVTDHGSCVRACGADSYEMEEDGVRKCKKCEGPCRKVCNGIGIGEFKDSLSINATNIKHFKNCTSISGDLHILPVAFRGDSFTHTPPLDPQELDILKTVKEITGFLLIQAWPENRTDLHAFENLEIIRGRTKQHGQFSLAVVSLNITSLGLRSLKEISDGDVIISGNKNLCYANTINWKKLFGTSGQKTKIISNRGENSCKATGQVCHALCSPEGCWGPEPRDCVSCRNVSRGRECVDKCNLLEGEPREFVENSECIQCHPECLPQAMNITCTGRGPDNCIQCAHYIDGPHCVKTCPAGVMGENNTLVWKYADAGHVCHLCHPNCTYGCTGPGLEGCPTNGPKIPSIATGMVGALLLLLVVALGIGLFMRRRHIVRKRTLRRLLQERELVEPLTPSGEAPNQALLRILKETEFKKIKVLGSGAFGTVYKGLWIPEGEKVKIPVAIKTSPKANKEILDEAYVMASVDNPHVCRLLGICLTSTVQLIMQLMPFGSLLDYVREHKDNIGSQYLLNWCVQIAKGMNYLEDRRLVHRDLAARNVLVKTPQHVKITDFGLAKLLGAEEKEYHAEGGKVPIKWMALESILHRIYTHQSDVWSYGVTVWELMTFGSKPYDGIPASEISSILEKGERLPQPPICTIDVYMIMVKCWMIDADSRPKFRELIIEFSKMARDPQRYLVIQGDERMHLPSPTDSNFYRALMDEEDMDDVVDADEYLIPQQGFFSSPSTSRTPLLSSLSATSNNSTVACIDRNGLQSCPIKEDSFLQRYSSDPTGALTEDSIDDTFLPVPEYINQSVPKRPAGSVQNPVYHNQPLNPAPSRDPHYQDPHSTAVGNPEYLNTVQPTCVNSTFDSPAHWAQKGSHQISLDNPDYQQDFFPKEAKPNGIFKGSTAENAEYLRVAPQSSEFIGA
Procedure: (§16) a) The medium was preheated in a 37 water bath in advance.
(§17) b) Remove the cryogenic vials from the liquid nitrogen tank, quickly put it into a 37° C. water bath, and completely melt it in 1 min.
(§18) c) Transfer the cell suspension to a 15 mL centrifuge tube containing 8 mL medium, centrifuge 1000 rpm, 5 min,
(§19) d) Discard the supernatant, resuspend the cells in 1 mL medium, and transfer to a 75 cm^2 flask containing 15 mL medium, culture the cells in an incubator at 37° C., 5% CO2.
(§20) a) The medium was preheated in a 37° C.; water bath in advance.
(§21) b) Collect cell to a 15 mL centrifuged tube, centrifuge at 1000 rpm for 5 min. Discard the supernatant, count, and make the cell density at 1×10^4 cells/mL, then place it in a 37° C., 5% CO2 incubator.
(§22) b) The above compound solution was diluted 1:20 times with culture medium to prepare a 10 fold working solution;
(§23) a) Take cells in log phase growth, centrifuge at 1000 rpm for 5 min, then resuspend the cells with culture medium, then count cells;
(§24) b) Cells were seeded to 96-well cell culture plate with density at 2000 cells/well;
(§25) The blank control well was a culture medium (0.5% DMSO);
(§26) b) The cells were incubated for an additional 72 h in the incubator.
(§27) a) Remove the 96-well cell culture plate and add 50 μl of CTG reagent (CellTiter Glo kit, promega, Cat #G7573).
(§28) b) Plate was shaked for 2 min and then let it cool for 10 min at room temperature.
(§29) c) The Luminescence signal value was read using a PerkinElmer reader.
(§30) Experimental Data Analysis
(§31) Data were analyzed using GraphPad Prism 6.0 software to obtain a fitted curve of compound activity.
(§32) Y=Bottom+(Top−Bottom)/(1+10^((Log IC50−X)*Hill Slope));
(§33) The cells proliferation assay results are expressed with IC50, shown as Table 2.

Ba/F3-L858R/T790M/C797S = target: T1, Ba/F3-L858R/T790M/C797S (Homo sapiens, UniProt P00533, T790M/C797S/L858R, cells depend on it); test: Ba/F3-L858R/T790M/C797S cells proliferation assay; assay type: cell-based; conditions: cell proliferation, 72 h, CellTiter Glo; class symbols; read-out: BaF3 L858R/T790M/C797S IC50
T1 construct: BaF3 L858R/T790M/C797S IC50; other: cell proliferation, 72 h, CellTiter Glo; class symbols; numeric values
T1 sequence (P00533 whole entry T790M/C797S/L858R): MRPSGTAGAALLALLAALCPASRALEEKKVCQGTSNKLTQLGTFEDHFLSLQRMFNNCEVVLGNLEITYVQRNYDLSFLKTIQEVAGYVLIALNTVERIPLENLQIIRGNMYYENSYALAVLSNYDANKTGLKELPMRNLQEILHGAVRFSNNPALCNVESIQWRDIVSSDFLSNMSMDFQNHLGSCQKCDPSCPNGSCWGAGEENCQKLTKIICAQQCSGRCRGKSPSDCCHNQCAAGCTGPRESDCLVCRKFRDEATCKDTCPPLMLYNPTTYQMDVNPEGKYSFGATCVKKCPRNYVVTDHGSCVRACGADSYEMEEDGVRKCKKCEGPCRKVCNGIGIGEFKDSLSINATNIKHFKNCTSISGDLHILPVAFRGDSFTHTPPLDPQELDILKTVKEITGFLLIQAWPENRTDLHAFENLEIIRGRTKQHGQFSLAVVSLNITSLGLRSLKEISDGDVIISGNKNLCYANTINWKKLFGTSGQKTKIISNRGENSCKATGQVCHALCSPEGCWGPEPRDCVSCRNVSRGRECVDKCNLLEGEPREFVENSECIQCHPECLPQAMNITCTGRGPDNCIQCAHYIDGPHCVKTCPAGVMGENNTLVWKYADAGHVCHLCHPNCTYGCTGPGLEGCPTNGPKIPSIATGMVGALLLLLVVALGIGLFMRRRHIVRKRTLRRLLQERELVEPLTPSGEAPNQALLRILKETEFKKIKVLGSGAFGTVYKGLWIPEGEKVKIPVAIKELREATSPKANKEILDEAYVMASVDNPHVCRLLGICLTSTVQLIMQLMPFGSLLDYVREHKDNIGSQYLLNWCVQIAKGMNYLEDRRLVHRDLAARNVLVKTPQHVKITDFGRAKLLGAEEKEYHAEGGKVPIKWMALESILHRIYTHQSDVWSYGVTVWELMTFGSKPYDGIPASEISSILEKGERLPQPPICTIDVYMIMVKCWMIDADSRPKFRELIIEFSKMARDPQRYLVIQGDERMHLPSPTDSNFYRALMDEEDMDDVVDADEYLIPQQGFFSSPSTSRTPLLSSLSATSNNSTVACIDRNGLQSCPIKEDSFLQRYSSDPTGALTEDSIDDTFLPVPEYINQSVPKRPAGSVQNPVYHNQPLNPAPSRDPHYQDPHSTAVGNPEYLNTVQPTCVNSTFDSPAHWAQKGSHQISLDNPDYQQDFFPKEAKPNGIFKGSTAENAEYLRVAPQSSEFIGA
Procedure: as §16, §17, §18, §19, §20, §21, §22, §23, §24, §25, §26, §27, §28, §29, §30, §31, §32, §33

HCC827(Δ19del) = test: HCC827 cells proliferation assay; assay type: cell-based; conditions: Homo sapiens, HCC827; cell proliferation, 72 h, CellTiter Glo; class symbols; read-out: HCC827 IC50
Procedure: (§34) Test 3 H1975 and HCC827 Cells Proliferation Assay
(§35) a) The medium was preheated in a 37° C. water bath in advance.
as §17
(§36) c) Transfer the cell suspension to a 15 mL centrifuge tube containing 8 mL medium, centrifuge 1000 rpm, 5 min.
as §19, §21, §22, §23
(§37) b) Cells were seeded to 96-well cell culture plate with density at 2000 cells/well (suitable for H1975 cell) and at 2500 cells/well (suitable for HCC827 cell);
as §25, §26, §27, §28, §29, §30, §31
(§38) Y=Bottom+(Top−Bottom)/(1+10^((Log IC50−X)*HillSlope));
as §33

H1975(L858R/T790M) = test: H1975 cells proliferation assay; assay type: cell-based; conditions: Homo sapiens, NCI-H1975; cell proliferation, 72 h, CellTiter Glo; class symbols; read-out: H1975 IC50
Procedure: as §34, §35, §17, §36, §19, §21, §22, §23, §37, §25, §26, §27, §28, §29, §30, §31, §38, §33

EGFR L858R = EGFR L858R (Homo sapiens, UniProt P00533, L858R); test: Kinase assay (mobility shift) for EGFR L858R; assay type: biochemical
Procedure: as §1, §2, §3, §4, §5, §6, §7, §8, §9, §10, §11, §12, §13, §14, §15

EGFR T790M/L858R = EGFR T790M/L858R (Homo sapiens, UniProt P00533, L858R/T790M); test: Kinase assay (mobility shift) for EGFR T790M/L858R; assay type: biochemical
Chain of EGFR T790M/L858R (P00533 25-1210 T790M/L858R): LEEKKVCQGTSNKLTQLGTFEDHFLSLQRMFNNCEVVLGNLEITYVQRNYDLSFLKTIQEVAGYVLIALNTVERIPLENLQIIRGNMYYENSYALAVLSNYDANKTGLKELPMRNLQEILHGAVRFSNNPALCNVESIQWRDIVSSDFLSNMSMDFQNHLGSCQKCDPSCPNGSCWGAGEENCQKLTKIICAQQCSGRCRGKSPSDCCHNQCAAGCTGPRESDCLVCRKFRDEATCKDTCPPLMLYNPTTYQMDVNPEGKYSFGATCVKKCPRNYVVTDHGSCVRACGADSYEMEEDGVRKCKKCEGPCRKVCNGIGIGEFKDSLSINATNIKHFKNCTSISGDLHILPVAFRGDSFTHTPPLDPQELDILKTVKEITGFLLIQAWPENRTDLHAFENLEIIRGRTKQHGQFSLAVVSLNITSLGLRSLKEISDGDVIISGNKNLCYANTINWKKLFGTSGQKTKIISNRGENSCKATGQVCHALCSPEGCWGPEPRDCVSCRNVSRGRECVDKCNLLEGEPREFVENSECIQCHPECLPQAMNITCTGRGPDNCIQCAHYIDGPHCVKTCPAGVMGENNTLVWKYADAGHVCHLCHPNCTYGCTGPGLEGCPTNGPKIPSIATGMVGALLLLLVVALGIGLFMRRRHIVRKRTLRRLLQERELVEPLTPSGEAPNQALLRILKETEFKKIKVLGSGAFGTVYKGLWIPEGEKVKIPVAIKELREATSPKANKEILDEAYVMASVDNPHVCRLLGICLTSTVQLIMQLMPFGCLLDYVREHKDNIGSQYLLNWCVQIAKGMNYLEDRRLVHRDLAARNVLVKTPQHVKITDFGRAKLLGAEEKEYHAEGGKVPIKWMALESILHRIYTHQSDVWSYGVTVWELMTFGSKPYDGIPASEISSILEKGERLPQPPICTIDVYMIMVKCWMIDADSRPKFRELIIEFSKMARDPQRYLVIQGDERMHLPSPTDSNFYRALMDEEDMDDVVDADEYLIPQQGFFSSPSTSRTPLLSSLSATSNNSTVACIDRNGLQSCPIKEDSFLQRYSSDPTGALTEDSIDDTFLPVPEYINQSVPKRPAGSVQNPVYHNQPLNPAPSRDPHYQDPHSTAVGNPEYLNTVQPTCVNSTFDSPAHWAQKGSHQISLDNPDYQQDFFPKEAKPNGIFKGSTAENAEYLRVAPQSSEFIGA
Procedure: as §1, §2, §3, §4, §5, §6, §7, §8, §9, §10, §11, §12, §13, §14, §15

Chain of EGFR Δ19del/T790M/C797S (P00533 with tags, fused parts or gaps DEL746-750/T790M/C797S, form open): as the sequence (P00533 with tags, fused parts or gaps DEL746-750/T790M/C797S, form open) above

Row | SMILES | IC50 (EGFR Δ19del/T790M/C797S) | GI50 (Ba/F3-Δ19del/T790M/C797S) | GI50 (Ba/F3-L858R/T790M/C797S) | IC50 (HCC827(Δ19del)) | IC50 (H1975(L858R/T790M)) | IC50 (EGFR L858R) | IC50 (EGFR T790M/L858R)
1 | C=CC(=O)N(C)c1cc(Nc2ncc(Cl)c(Nc3ccccc3P(C)(C)=O)n2)ccc1N1CCC2(CC1)CC(N(C)C)C2 [Compound 6, N-(5-((5-chloro-4-((2-(dimethylphosphoryl)phenyl)amino)pyrimidin-2-yl)amino)-2-(2-(dimethylamino)-7-azaspiro[3.5]nonan-7-yl)phenyl)-N-methylacrylamide] | < 10 nM | 10 to 50 nM |  |  |  |  | 
2 | C=C(C)C(=O)Nc1cc(Nc2ncc(Cl)c(Nc3ccccc3P(C)(C)=O)n2)ccc1N1CCC2(CC1)CC(N(C)C)C2 [Compound 7, N-(5-((5-chloro-4-((2-(dimethylphosphoryl)phenyl)amino)pyrimidin-2-yl)amino)-2-(2-(dimethylamino)-7-azaspiro[3.5]nonan-7-yl)phenyl)methacrylamide] | < 10 nM | 10 to 50 nM | 10 to 50 nM | 10 to 50 nM |  |  | 
3 | CN(C)C/C=C/C(=O)Nc1cc(Nc2ncc(Cl)c(Nc3ccccc3P(C)(C)=O)n2)ccc1N1CCC2(CC1)CC(N(C)C)C2 [Compound 8, (E)-N-(5-((5-chloro-4-((2-(dimethylphosphoryl)phenyl)amino)pyrimidin-2-yl)amino)-2-(2-(dimethylamino)-7-azaspiro[3.5]nonan-7-yl)phenyl)-4-(dimethylamino)but-2-enamide] | < 10 nM | 10 to 50 nM | 10 to 50 nM | 10 to 50 nM | 10 to 50 nM |  | 
4 | C=C(F)C(=O)Nc1cc(Nc2ncc(Cl)c(Nc3ccccc3P(C)(C)=O)n2)ccc1N1CCC2(CC1)CC(N(C)C)C2 [Compound 9, N-(5-((5-chloro-4-((2-(dimethylphosphoryl)phenyl)amino)pyrimidin-2-yl)amino)-2-(2-(dimethylamino)-7-azaspiro[3.5]nonan-7-yl)phenyl)-2-fluoroacrylamide] | < 10 nM | 10 to 50 nM | 10 to 50 nM |  |  |  | 
5 | C=CC(=O)Nc1cc(Nc2ncc(Cl)c(Nc3ccc4nccnc4c3P(C)(C)=O)n2)ccc1N1CCC2(CC1)CC(N(C)C)C2 [Compound 10, N-(5-((5-chloro-4-((5-(dimethylphosphoryl)quinoxalin-6-yl)amino)pyrimidin-2-yl)amino)-2-(2-(dimethylamino)-7-azaspiro[3.5]nonan-7-yl)phenyl)acrylamide] | < 10 nM | < 10 nM | < 10 nM | 10 to 50 nM | < 10 nM |  | 
6 | C=CC(=O)Nc1cc(Nc2ncc(Cl)c(Nc3ccc4nccnc4c3P(C)(C)=O)n2)c(OC)cc1N1CCC2(CC1)CC(N(C)C)C2 [Compound 11, N-(5-((5-chloro-4-((5-(dimethylphosphoryl)quinoxalin-6-yl)amino)pyrimidin-2-yl)amino)-2-(2-(dimethylamino)-7-azaspiro[3.5]nonan-7-yl)-4-methoxyphenyl)acrylamide] | < 10 nM | 10 to 50 nM |  | 10 to 50 nM | 10 to 50 nM |  | 
7 | C=CC(=O)Nc1cc(Nc2ncc(Br)c(Nc3ccc4nccnc4c3P(C)(C)=O)n2)ccc1N1CCC(N2CCN(C)CC2)CC1 [Compound 12, N-(5-((5-bromo-4-((5-(dimethylphosphoryl)quinoxalin-6-yl)amino)pyrimidin-2-yl)amino)-2-(4-(4-methylpiperazin-1-yl)piperidin-1-yl)phenyl)acrylamide] |  | 10 to 50 nM | 10 to 50 nM | 10 to 50 nM | 10 to 50 nM |  | 
8 | C=CC(=O)Nc1cc(Nc2ncc(C)c(Nc3ccccc3P(C)(C)=O)n2)ccc1N(C)CCN(C)C [Compound 19, N-(2-((2-(dimethylamino)ethyl)(methyl)amino)-5-((4-((2-(dimethylphosphoryl)phenyl)amino)-5-methylpyrimidin-2-yl)amino)phenyl)acrylamide hydrochloric acid salt] | < 10 nM | 10 to 50 nM |  | < 10 nM | 10 to 50 nM | < 10 nM | < 10 nM
9 | C=CC(=O)Nc1cc(Nc2ncc(C)c(Nc3ccccc3P(C)(C)=O)n2)ccc1N1CCC(N2CCN(C)CC2)CC1 [Compound 20, N-(5-((4-((2-(dimethylphosphoryl)phenyl)amino)-5-methylpyrimidin-2-yl)amino)-2-(4-(4-methylpiperazin-1-yl)piperidin-1-yl)phenyl)acrylamide] | < 10 nM | 10 to 50 nM |  | < 10 nM | 10 to 50 nM | < 10 nM | < 10 nM
10 | C=CC(=O)Nc1cc(Nc2ncc(F)c(Nc3ccccc3P(C)(C)=O)n2)ccc1N1CCC(N2CCN(C)CC2)CC1 [Compound 29, N-(5-((4-((2-(dimethylphosphoryl)phenyl)amino)-5-fluoropyrimidin-2-yl)amino)-2-(4-(4-methylpiperazin-1-yl)piperidin-1-yl)phenyl)acrylamide] | < 10 nM | 10 to 50 nM |  | 10 to 50 nM |  | 10 to 100 nM | < 10 nM
11 | C=CC(=O)Nc1cc(Nc2nccc(Nc3ccccc3P(C)(C)=O)n2)ccc1N(C)CCN(C)C [Compound 37, N-(2-((2-(dimethylamino)ethyl)(methyl)amino)-5-((4-((2-(dimethylphosphoryl)phenyl)amino)pyrimidin-2-yl)amino)phenyl)acrylamide] | 10 to 100 nM |  |  | < 10 nM | 10 to 50 nM | < 10 nM | < 10 nM
12 | C=CC(=O)Nc1cc(Nc2ncc(Cl)c(Nc3ccccc3P(C)(C)=O)n2)ccc1OC1CCN(C)CC1 [Compound 41, N-(5-((5-chloro-4-((2-(dimethylphosphoryl)phenyl)amino)pyrimidin-2-yl)amino)-2-((1-methylpiperidin-4-yl)oxy)phenyl)acrylamide] | < 10 nM |  |  | 10 to 50 nM | 10 to 50 nM | 10 to 100 nM | < 10 nM

— US20220227796A1, “EGFR INHIBITORS, COMPOSITIONS AND METHODS THERE OF” (Betta Pharmaceuticals Co., Ltd., priority 2019, published 2022)
